One assay addresses human SCD1 (Homo sapiens (Human), UniProt O00767). As to the kind of experiment: Yeast growth assay, strain expressing human SCD1 as the sole desaturase (reduced growth as surrogate for SCD inhibition). As to conditions: yeast with OLE1 deleted expressing human SCD1 from a plasmid; growth read as OD600 after 40 h at 30° C.; top drug concentration 33.3 μM. It counts as cell-based. An outline of the steps:
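Human SCD1 or SCD5 expressed from a plasmid in OLE1-deleted yeast as the sole desaturase. Cells washed free of Tween and fatty acids, grown with compound in SD-Ura glucose medium 40 h at 30 °C; growth measured as OD600, reduced growth taken as SCD inhibition.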

The next assay has as its target human SCD5 (Homo sapiens (Human), UniProt Q86SK9). Nature of the assay: Yeast growth assay, strain expressing human SCD5 as the sole desaturase (reduced growth as surrogate for SCD inhibition). It counts as cell-based. As to conditions: yeast with OLE1 deleted expressing human SCD5 from a plasmid; growth read as OD600 after 40 h at 30° C.; top drug concentration 33.3 μM. The method, then: Strains expressing SCD1 or SCD5 as the sole desaturase, the human SCD1 and SCD5 genes were used to evaluate inhibition of SCD1/SCD5 using reduced growth as a surrogate for SCD inhibition. These yeast strains express human SCD1 or SCD5 from a plasmid harbored in a strain in which the yeast OLE1 gene is deleted.
All compound profiling experiments were performed using the same basic protocol. Yeast were cultured using standard techniques in complete synthetic media lacking uracil and containing yeast nitrogen base supplemented with 2% (w/v) glucose (SD-Ura) Starter cultures were inoculated in 3 mL SD-Ura media containing 0.01% tween and 0.2 mM palmitoleic and oleic acid. Cultures were incubated overnight in a 30° C. shaker incubator (225 rpm). Saturated morning cultures were centrifuged, washed in SD-Ura media lacking TWEEN-20 and fatty acids, and then diluted 1:20 in fresh SD-Ura media also lacking TWEEN-20 and fatty acids.
Compound administration was performed in two separate steps. First, 15 μL of SD-Ura was dispensed into clear 384-well assay plates using a MULTIDROP™ Combi reagent dispenser. […] The cultures described above were centrifuged and washed with media lacking TWEEN-20 or oleic and palmitoleic acids.
After yeast delivery, assay plates were incubated under humidified conditions at 30° C. for 40 h. Yeast growth was monitored by reading the OD600 of each well using a microplate reader (Perkin Elmer EnVision™).

The source of these data is patent publication US10919885B2, “Compounds and uses thereof” (Yumanity Therapeutics, Inc., priority 2018, dated 2021).

Chain of human SCD1 (O00767 whole entry): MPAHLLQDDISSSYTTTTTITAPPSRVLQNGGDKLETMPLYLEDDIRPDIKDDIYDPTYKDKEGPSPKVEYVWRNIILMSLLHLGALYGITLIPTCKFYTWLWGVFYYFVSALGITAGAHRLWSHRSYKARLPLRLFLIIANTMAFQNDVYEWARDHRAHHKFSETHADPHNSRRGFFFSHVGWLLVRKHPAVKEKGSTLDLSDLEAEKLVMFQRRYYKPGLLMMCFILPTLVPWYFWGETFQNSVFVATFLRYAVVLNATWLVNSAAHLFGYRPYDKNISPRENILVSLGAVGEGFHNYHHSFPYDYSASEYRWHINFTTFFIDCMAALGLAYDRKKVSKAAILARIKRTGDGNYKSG
Chain of human SCD5 (Q86SK9 whole entry): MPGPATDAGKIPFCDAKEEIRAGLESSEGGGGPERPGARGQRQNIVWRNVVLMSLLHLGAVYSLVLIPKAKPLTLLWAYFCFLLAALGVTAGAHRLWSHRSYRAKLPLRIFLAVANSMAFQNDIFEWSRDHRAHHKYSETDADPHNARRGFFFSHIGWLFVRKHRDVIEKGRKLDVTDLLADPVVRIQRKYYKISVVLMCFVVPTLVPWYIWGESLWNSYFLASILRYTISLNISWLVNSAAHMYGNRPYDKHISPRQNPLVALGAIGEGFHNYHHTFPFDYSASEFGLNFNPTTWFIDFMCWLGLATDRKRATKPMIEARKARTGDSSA

Consider `O=C(Nc1cnn(Cc2ccc(Cl)c(Cl)c2)c1)c1cc(-c2ccco2)on1` [Compound 29], for which the IC50 against human SCD1 and at human SCD5 was greater than 45 µM in each case.

For `O=C(Nc1cnn(CC2CCOCC2)c1)c1cc(-c2ccco2)on1` [Compound 31], the IC50 at human SCD1 and on human SCD5 was greater than 45 µM in each case.

`O=C(c1cc(-c2ccco2)on1)N(Cc1ccc(Cl)cc1)c1cnn(Cc2ccc(Cl)cc2)c1` [Compound 32]: the IC50 on human SCD1 and at human SCD5 was greater than 45 µM in each case.

For the molecule `O=C(Nc1cnn(-c2ccccc2)c1)c1cc(-c2ccco2)on1` [Compound 33], the 50% inhibitory concentration (IC50) at human SCD1 and against human SCD5 was greater than 45 µM throughout.

Regarding `O=C(Nc1cnn(CCCC(F)(F)F)c1)c1cc(-c2ccco2)on1` [Compound 34, 5-(2-furyl)-N-[1-(4,4,4-trifluorobutyl)pyrazol-4-yl]isoxazole-3-carboxamide], the IC50 (usually the concentration that inhibits the measured activity by half) against human SCD1 is greater than 45 µM; against human SCD5, 6.42 µM.

Consider `CC(C)(C)OC(=O)n1cc(NC(=O)c2cc(-c3ccccc3)on2)cn1` [Compound 35], for which the IC50 on human SCD1 is 3.24 µM; at human SCD5 it was greater than 45 µM.

For the molecule `O=C(Nc1cnn(Cc2cccnc2)c1)c1cc(-c2ccccc2)on1` [Compound 39], the IC50 against human SCD1 and against human SCD5 was greater than 45 µM throughout.

On to `O=C(Nc1cnn(Cc2ccccn2)c1)c1cc(-c2ccccc2)on1` [Compound 40], for which the IC50 against human SCD1 and on human SCD5 was greater than 45 µM in each case.

As for `O=C(Nc1cnn(CC2CC2)c1)c1cc(-c2ccccc2)on1` [Compound 41], the IC50 against human SCD1 and on human SCD5 was greater than 45 µM throughout.

In the case of `N#Cc1ccc(Cn2cc(NC(=O)c3cc(-c4ccccc4)on3)cn2)cc1` [Compound 42], the half-inhibitory concentration (IC50) against human SCD1 and against human SCD5 was greater than 45 µM in each case.

As for `N#Cc1ccc(Cn2cc(NC(=O)c3cc(-c4ccccc4)on3)cn2)s1` [Compound 43], the IC50 against human SCD1 and against human SCD5 was greater than 45 µM throughout.

`O=C(Nc1cn(Cc2ccccc2)nn1)c1cc(-c2ccccc2)on1` [Compound 44]: the IC50 against human SCD1 and at human SCD5 was greater than 45 µM in each case.

Turning to `O=C(Nc1cnn(Cc2cccc(F)c2)c1)c1cc(-c2cnccn2)on1` [Compound 45], the IC50 was 23.1 µM at human SCD1 and greater than 45 µM at human SCD5.

Consider `O=C(Nc1cnn(Cc2cccc(F)c2)c1)c1cc(-c2ncccn2)on1` [Compound 46], for which the values for the IC50 against human SCD1 and on human SCD5 were 22.6 µM and greater than 45 µM, respectively.

Consider `N#Cc1ccc(CN(C(=O)c2cc(-c3ccccc3)on2)c2cnn(Cc3ccc(C#N)cc3)c2)cc1` [Compound 47], for which the 50% inhibitory concentration (IC50) against human SCD1 and against human SCD5 was greater than 45 µM in each case.

`NC(=O)c1cc(C(=O)Nc2cnn(Cc3ccccc3)c2)no1` [Compound 48]: the IC50 at human SCD1 and on human SCD5 was greater than 45 µM each time.

Turning to `O=C(Nc1cnn(CC2CCOC2)c1)c1cc(-c2ccccc2)on1` (centres unmarked) [Compound 50], the IC50 against human SCD1 is 25.5 µM; at human SCD5, greater than 45 µM.

For `CC(c1ccccc1)n1cc(NC(=O)c2cc(-c3ccccc3)on2)cn1` (centres unmarked) [Compound 51], the half-inhibitory concentration (IC50) against human SCD1 and at human SCD5 was greater than 45 µM in each case.

With `O=C(Nc1cnn(Cc2ccccc2)n1)c1cc(-c2ccccc2)on1` [Compound 52], the 50% inhibitory concentration (IC50) against human SCD1 and at human SCD5 was greater than 45 µM each time.

For the molecule `O=C(Nc1cnn(Cc2cccc(F)c2)c1)c1cc(-c2ccccc2)on1` [Compound 53], the IC50 was 0.07 µM against human SCD1 and greater than 45 µM on human SCD5.

Regarding `O=C(Nc1cnn(Cc2cccc(F)c2)c1)c1cc(-c2ccccn2)on1` [Compound 54], the IC50 on human SCD1 is 2.04 µM; at human SCD5 it was greater than 45 µM.

Turning to `O=C(Nc1cnn(Cc2cccc(F)c2)c1)c1cc(-c2cccnc2)on1` [Compound 55], the IC50 against human SCD1 was 0.59 µM; against human SCD5, greater than 45 µM.

Turning to `O=C(Nc1cnn(Cc2cccc(F)c2)c1)c1cc(-c2ccncc2)on1` [Compound 56, N-(1-(3-fluorobenzyl)-1H-pyrazol-4-yl)-5-(pyridin-4-yl)isoxazole-3-carboxamide], the figures for the IC50 against human SCD1 and on human SCD5 were 2.41 µM and 2.69 µM, respectively.

Take `O=C(Nc1cc(-c2ccco2)on1)c1cnn(Cc2ccc(Cl)c(Cl)c2)c1` [Compound 59]: the IC50 at human SCD1 and on human SCD5 was greater than 45 µM throughout.

On to `O=C(Nc1cnn(Cc2ccc(F)c(F)c2)c1)c1cc(-c2ccccn2)on1` [Compound 61], for which the IC50 is 25.5 µM on human SCD1 and greater than 45 µM at human SCD5.

Turning to `O=C(c1cc(-c2ccccn2)on1)N(Cc1ccc(F)c(F)c1)c1cnn(Cc2ccc(F)c(F)c2)c1` [Compound 62, N-(3,4-difluorobenzyl)-N-(1-(3,4-difluorobenzyl)-1H-pyrazol-4-yl)-5-(pyridin-2-yl)isoxazole-3-carboxamide], the IC50 at human SCD1 is greater than 45 µM; at human SCD5 it was 33.1 µM.

Regarding `N#Cc1ccc(Cn2cc(NC(=O)c3cc(-c4ccccc4)on3)cn2)nc1` [Compound 63], the IC50 against human SCD1 and on human SCD5 was greater than 45 µM throughout.

Consider `CC(C)(c1ccccc1)n1cc(NC(=O)c2cc(-c3ccccc3)on2)cn1` [Compound 64], for which the IC50 against human SCD1 and at human SCD5 was greater than 45 µM in each case.

Consider `CN(C)CCC(c1ccccc1)n1cc(NC(=O)c2cc(-c3ccccc3)on2)cn1` (centres unmarked) [Compound 65], for which the IC50 against human SCD1 and against human SCD5 was greater than 45 µM each time.

For `Cc1nn(Cc2ccccc2)cc1NC(=O)c1cc(-c2ccccc2)on1` [Compound 66], the IC50 against human SCD1 was 1.83 µM; on human SCD5 it was greater than 45 µM.

`Cc1ncc(-c2cc(C(=O)Nc3cnn(Cc4cccc(F)c4)c3)no2)o1` [Compound 67, N-(1-(3-fluorobenzyl)-1H-pyrazol-4-yl)-5-(2-methyloxazol-5-yl)isoxazole-3-carboxamide]: the figures for the half-inhibitory concentration (IC50) against human SCD1 and at human SCD5 were 0.99 µM and 7.89 µM, respectively.

Regarding `N#Cc1nn(Cc2ccccc2)cc1NC(=O)c1cc(-c2ccccc2)on1` [Compound 68], the IC50 against human SCD1 and against human SCD5 was greater than 45 µM throughout.

For the molecule `CSCCC(c1ccccc1)n1cc(NC(=O)c2cc(-c3ccccc3)on2)cn1` (centres unmarked) [Compound 70], the IC50 at human SCD1 and against human SCD5 was greater than 45 µM throughout.

In the case of `C[S+]([O-])CCC(c1ccccc1)n1cc(NC(=O)c2cc(-c3ccccc3)on2)cn1` (centres unmarked) [Compound 71], the IC50 against human SCD1 and on human SCD5 was greater than 45 µM throughout.

Turning to `O=C(Nc1cnn(Cc2cccc(F)c2)c1)c1cc(-c2ccon2)on1` [Compound 72], the values for the IC50 against human SCD1 and against human SCD5 were 0.084 µM and greater than 45 µM, respectively.

For the molecule `CSCC(c1ccccc1)n1cc(NC(=O)c2cc(-c3ccccc3)on2)cn1` (centres unmarked) [Compound 73], the IC50 against human SCD1 and on human SCD5 was greater than 45 µM in each case.

Take `O=C(Nc1cnn(Cc2cc(F)ccc2C(F)(F)F)c1)c1cc(-c2ccccc2)on1` [Compound 74]: the half-maximal inhibitory concentration (IC50) against human SCD1 and against human SCD5 was greater than 45 µM throughout.

On to `CS(=O)(=O)CCC(c1ccccc1)n1cc(NC(=O)c2cc(-c3ccccc3)on2)cn1` (centres unmarked) [Compound 75], for which the half-maximal inhibitory concentration (IC50) at human SCD1 and against human SCD5 was greater than 45 µM throughout.

`CN(C(=O)c1cc(-c2ccccc2)on1)c1cnn(Cc2cc(F)ccc2C(F)(F)F)c1` [Compound 76]: the IC50 on human SCD1 and at human SCD5 was greater than 45 µM in each case.

On to `O=C(Nc1cnn(Cc2cc(F)ccc2C(F)(F)F)c1)c1cc(-c2ccccn2)on1` [Compound 77], for which the IC50 at human SCD1 and at human SCD5 was greater than 45 µM in each case.

Turning to `C[S+]([O-])CC(c1ccccc1)n1cc(NC(=O)c2cc(-c3ccccc3)on2)cn1` (centres unmarked) [Compound 78], the IC50 at human SCD1 and against human SCD5 was greater than 45 µM throughout.

As for `O=C(Nc1noc(Cc2ccccc2)n1)c1cc(-c2ccccc2)on1` [Compound 79], the IC50 at human SCD1 and on human SCD5 was greater than 45 µM in each case.

Regarding `CS(=O)(=O)CC(c1ccccc1)n1cc(NC(=O)c2cc(-c3ccccc3)on2)cn1` (centres unmarked) [Compound 80], the IC50 against human SCD1 and against human SCD5 was greater than 45 µM each time.

Take `O=C(Nc1cnn(Cc2cccc(F)c2)c1)c1cc(-c2ccns2)on1` [Compound 81, N-(1-(3-fluorobenzyl)-1H-pyrazol-4-yl)-5-(isothiazol-5-yl)isoxazole-3-carboxamide]: the IC50 against human SCD1 was 0.232 µM; against human SCD5, 1.6 µM.

For `O=C(Nc1cn(Cc2ccccc2)nc1C(F)(F)F)c1cc(-c2ccccc2)on1` [Compound 82], the half-maximal inhibitory concentration (IC50) at human SCD1 and against human SCD5 was greater than 45 µM in each case.

For the molecule `C=C(C)c1cc(C(=O)Nc2cnn(Cc3cc(F)ccc3C(F)(F)F)c2)no1` [Compound 84], the IC50 against human SCD1 and on human SCD5 was greater than 45 µM in each case.

Take `CNC(=O)c1cc(C(=O)Nc2cnn(Cc3cccc(F)c3)c2)no1` [Compound 87]: the IC50 against human SCD1 was 15 µM; against human SCD5, greater than 45 µM.

Take `N#Cc1ccc(F)cc1Cn1cc(NC(=O)c2cc(-c3ccccc3)on2)cn1` [Compound 88]: the IC50 against human SCD1 and on human SCD5 was greater than 45 µM in each case.

`Cn1cccc(-c2cc(C(=O)Nc3cnn(Cc4cccc(F)c4)c3)no2)c1=O` [Compound 89]: the results for the IC50 on human SCD1 and against human SCD5 were 12 µM and greater than 45 µM, respectively.
